Experimental data as given in patent US4482560A, “Carbostyril derivatives, and antihistaminic agents containing the same” (priority 1979, dated 1984).

How the values were obtained:
[1] = target: ileum of a guinea pig (Cavia porcellus, UniProt P31389); assay: cell-based; conditions: histamine-induced retraction of guinea pig ileum, test compound 10^-6 g/ml, 36° C., Van Rossam method; for Kb: read-out: pA2 (converted)
Method: Pharmacological tests of the present compounds were conducted according to said method as follows:
A male guinea pig having 300 to 500 g body weight is killed by blood letting. An ileum having length of 15 cm being enucleated from the ileocecal region is dipped into Tyrode's solution (which is prepared from 8.0 g of NaCl, 0.2 g of KCl, 0.2 g of CaCl2, 1.0 g of glucose, 1.0 g of NaHCO3, 0.065 g of NaHPO4.2H2 O and 0.2135 g of MgCl2.6H2 O to make 1000 ml in total volume by adding water). Then the tissue of ileum is cut to a length of 2.5 to 3.0 cm and suspended in an organ bath filled with 30 ml of Tyrode's solution. The organ bath is kept a temperature of 36° C. while blowing a mixed gas consisting of 5% of CO2 and 95% of O2 into the bath. 10 Minutes after the blowing, 10^-6 M of histamine is added to the bath to examine the sensitivity of the tissue and a reaction curve (control) with respect to the dosage of histamine is obtained. After the dosage of histamine-reaction curve (control) become constant 10^-6 g/ml of a compound to be tested is added to the bath and further histamine is added 5 minutes later to obtain dosage-reaction curve. Retraction of the ileum is recorded on a pen-recorder through an isotonic transducer (TD-112S manufactured by Nihon Koden).

[2] = Acute toxicity test; conditions: rat, in vivo; oral, male rats
Description: Each of the compounds of the present invention was orally administered to male rats to determine the acute toxicity.

[3] = test system: Male mice of ddy-strain; assay: Halothane anesthesia increasing activity; format: in vivo, mouse; conditions: oral, 32 mg/kg, 1 hour before 4% Halothane for 3 minutes, male ddy mice; saline control 4.2
Method: Male mice of ddy-strain having about 20 g body weight were used. One test group consists of 10 mice. An aqueous Gummi Arabicum suspension of test compound (80 mg of a compound to be tested and 1 g of Gummi Arabicum/100 ml of physiological NaCl solution) was administered orally to each mouse at the dosage of 32 mg of test compound/kg body. One hour after the administration, each mouse was placed in gas respiration chamber (13×13×24 cm) and oxygen gas containing 4% of Halothane [2-bromo-2-chloro-1,1,1-trifluoroethane] was blown into the chamber at the velocity of 2 l/min for 3 minutes. A mouse anaesthetized was taken out from the chamber and the time between the introduction of anesthesia to waking was measured by righting reflex as the index. To mice of control group, 1% Gummi Arabicum aqueous physiological solution was orally administered at the dosage of 0.1 ml/kg body. (Reference: M. J. Turnbull and J. W. Watkins: Br. J. Pharmacol., 58, 27-35 (1976))

[4] = test system: conjunctiva of the animal; assay: Local anesthesia activity test; format: in vivo, guinea pig; conditions: 0.1% solution, 3 drops on conjunctiva, 60 stimulations in 30 minutes, four guinea pigs; saline control 0
Method: Guinea pig having about 300 to 350 g of body weight were used as the test animals. Three (3) drops of 0.1%-test compound dissolved in physiological saline solution were administered through 1/4-sized injection needle on the surface of conjuctiva of the test animal. After the administration of the test solution, the conjunctiva of the animal was stimulated ten times in every 5 minutes by a stylet (mandrine) or 1/4-sized injection needle, the stimulations were repeated 6 times within 30 minutes, thus 60 stimulations were given to the conjunctiva of the animal. The number of disappearing of eye-closing-reflexes, during 30 minutes after the administration of the test solution was counted as to the effectiveness of the local anesthesia activity. In this test, four (4) guinea pigs were used as one test group, and the test solution containing 0.1% of the test compound was applied to one test group, and physiological saline solution was, on the other hand, applied to another test group of the guinea pigs as the control.

ileum of a guinea pig, sequence (P31389 whole entry): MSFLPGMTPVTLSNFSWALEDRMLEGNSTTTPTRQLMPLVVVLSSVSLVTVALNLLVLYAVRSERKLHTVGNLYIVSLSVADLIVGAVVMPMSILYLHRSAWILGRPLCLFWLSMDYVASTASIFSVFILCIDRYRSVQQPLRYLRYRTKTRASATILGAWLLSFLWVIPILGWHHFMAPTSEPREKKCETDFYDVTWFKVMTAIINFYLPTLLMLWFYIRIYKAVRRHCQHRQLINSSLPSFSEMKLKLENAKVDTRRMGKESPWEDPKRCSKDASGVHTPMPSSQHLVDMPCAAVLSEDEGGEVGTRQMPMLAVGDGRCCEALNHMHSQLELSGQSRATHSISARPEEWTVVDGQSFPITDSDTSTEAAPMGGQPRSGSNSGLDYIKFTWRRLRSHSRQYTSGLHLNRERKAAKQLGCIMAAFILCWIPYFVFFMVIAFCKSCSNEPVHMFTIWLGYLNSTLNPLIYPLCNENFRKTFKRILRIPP

For `O=C1CCc2ccc(OCC(O)CN3CCC(c4ccccc4)CC3)cc2N1` (stereo not shown) [Compound 9, 7-[2-Hydroxy-3-(4-phenyl-1-piperidyl)propoxy]-3,4-dihydrocarbostyril], the Kb [1] was 0.129 nM, the LD50 [2] was over 1000 mg/kg and the “Time (minutes) between introduction of anesthesia and waking (righting reflex)” value (“Time (minutes) between introduction” for short) [3] was 4.1 min. For the same compound, the “Number of eye-closing reflex (number of disappearing of eye-closing-reflexes during 30 minutes)” value (from here on “Number of eye-closing reflex”) [4] was 29.2.
In the case of `Cc1cc(=O)n(C)c2ccc(OCCCN3CCN(Cc4ccc(Cl)cc4)CC3)cc12` [D, reference compound], the “Number of eye-closing reflex” value [4] is reported as 3.8.
With `CN1C(=O)CCc2c(OCC(O)CN3CCC(Cc4ccccc4)CC3)cccc21.O=C(O)C(=O)O` (stereo not shown) [Compound 10, 1-Methyl-5-[2-hydroxy-3-(4-benzyl-1-piperidyl)-propoxy]-3,4-dihydrocarbostyril monooxalate] the Kb [1] was 0.24 nM, the LD50 [2] was over 1000 mg/kg and the “Time (minutes) between introduction” value [3] was 4.8 min. For the same compound, the “Number of eye-closing reflex” value [4] was 37.3.
For `C[N+]1(CC(O)COc2cccc3c2CCC(=O)N3)CCC(c2ccccc2)CC1` (stereo not shown) [Compound 11, 4-Phenyl-1-[2-hydroxy-3-(2-oxo-1,2,3,4-tetra-hydroquinolin-5-yloxy)propyl]-1-methyl-piperidium iodide], the Kb [1] was 5.89 nM, the LD50 [2] was over 1000 mg/kg and the “Time (minutes) between introduction” value [3] was 5.2 min. For the same compound, the “Number of eye-closing reflex” value [4] was 27.6.
In the case of `CN1C(=O)CCc2ccc(OCCCN3CCC(Cc4ccccc4)CC3)cc21.O=C(O)C(=O)O` [Compound 2, 1-Methyl-7-[3-(4-benzyl-1-piperidyl)propoxy]-3,4-dihydrocarbostyril monooxalate], the Kb [1] is reported as 0.02 nM, the LD50 [2] is reported as over 1000 mg/kg and the “Time (minutes) between introduction” value [3] is reported as 4.9 min. The “Number of eye-closing reflex” value [4] was 58.0.
With `O=c1cc(-c2ccccc2)c2ccc(OCCCN3CCC(c4ccccc4)CC3)cc2[nH]1` [Compound 13, 4-Phenyl-7-[3-(4-phenyl-1-piperidyl)propoxy]-carbostyril monohydrochoride] the Kb [1] was 0.186 nM, the LD50 [2] was over 1000 mg/kg and the “Time (minutes) between introduction” value [3] was 5.6 min. For the same compound, the “Number of eye-closing reflex” value [4] was 28.0.
In the case of `Cc1cc(=O)[nH]c2cc(OCCCN3CCN(Cc4ccccc4)CC3)ccc12` [E, 4-Methyl-7-[3-(4-benzyl-piperazin-1-yl)-propoxy]-2-oxo-1,2-dihydroquinoline, reference compound], the “Number of eye-closing reflex” value [4] is reported as 5.2.
With `O=C1CCc2c(cccc2OCCCN2CCC(Cc3ccccc3)CC2)N1` [Compound 1, 5-[3-(4-Benzyl-1-piperidyl)propoxy]-3,4-dihydrocarbostyril] the Kb [1] was 0.302 nM, the LD50 [2] was over 1000 mg/kg and the “Time (minutes) between introduction” value [3] was 4.7 min. For the same compound, the “Number of eye-closing reflex” value [4] was 55.1.
For `Cc1cc(=O)n(C)c2cc(OCCCN3CCN(Cc4ccc(Cl)cc4)CC3)ccc12` [C, 1,4-Dimethyl-7-{3-[4-(4-chlorobenzyl)-1-piperazin-1-yl]propoxy}-2-oxo-1,2-dihydroquinoline, reference compound], the “Number of eye-closing reflex” value [4] was 2.8.
In the case of `CC(=O)C1(c2ccccc2)CCN(CCCOc2ccc3c(c2)NC(=O)CC3)CC1` [Compound 15, 7-{3-[4-(4-Acetyl-4-phenyl)-1-piperidyl]}-3,4-dihydrocarbostyril], the pA2 [1] is reported as 9.92, the LD50 [2] is reported as over 1000 mg/kg and the “Time (minutes) between introduction” value [3] is reported as 4.7 min. For the same compound, the “Number of eye-closing reflex” value [4] was 35.5.
